Measurements reported in patent publication US8623996B2, “Cold active enzyme and method thereof” (University Putra Malaysia, priority 2010, dated 2014).
Square brackets hold non-standard residues; d marks the D form. Peptide text beside a SMILES is read from it. * marks the point of attachment. Sta = CC(C)C[C@H](N)[C@@H](O)CC(=O)O; Isovaleryl = CC(C)CC(=O)*

Assays:
LipPI12 lipase [1] = assay: Effect of surfactants on LipPI12 lipase activity; format: biochemical, Leucosporodium antarcticum PI12; settings: 0.1% surfactant, 20° C., 30 min
Description: (§1) The purified LipPI12 lipase and protease were mixed with surfactants (final concentration of 0.1%, v/v) and was incubated at 20° C. for 30 min prior to enzymatic assays. Lipase activity ?; Protease activity ? .
(§2) Surfactants or surface active agents are the most important constituents in the formulation of detergent. Enzyme and surfactants form unique interactions that affect the function of enzyme, i.e. whether to stabilize or destabilize. […] Lipase and protease LipPI12 was treated with various surfactants at a concentration of […] at 20° C. for 30 min before being subjected to lipase and protease assays colorimetrically. The study on the effect of LipPI12 lipase and its protease on various surfactants was carried out using 0.1% of surfactant, namely from TWEEN™ 20-80, TRITON™ X-100, SDS and SLS. […] Remarkably, LipPI12 protease was activated in the presence of TWEEN™ 80 and SLS, with 30 and 70% enhancement, respectively. […] The incubation with SDS also seemed to affect LipPI12 protease catalytic activity, where it dropped to only 27% of its control activity.
Target sequence in this assay (as listed by the source): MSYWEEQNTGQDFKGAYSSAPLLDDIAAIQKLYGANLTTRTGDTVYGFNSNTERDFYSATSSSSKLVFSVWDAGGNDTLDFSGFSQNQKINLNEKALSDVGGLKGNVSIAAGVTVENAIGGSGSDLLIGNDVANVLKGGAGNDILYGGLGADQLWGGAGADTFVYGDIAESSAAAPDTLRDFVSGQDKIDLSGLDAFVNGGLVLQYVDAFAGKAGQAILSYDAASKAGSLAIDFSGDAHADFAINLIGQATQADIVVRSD

LipPI12 protease [2] = assay: Effect of surfactants on LipPI12 protease activity; format: biochemical, Leucosporodium antarcticum PI12; settings: 0.1% surfactant, 20° C., 30 min
Description: as §1, §2

isolate PI12 = assay: Antibiotic resistance of isolate PI12; format: cell-based, Leucosporodium antarcticum
Description: The bacterium was grown in nutrient broth and agar plates at 4° C. without shaking. Visible growth was observed after one week of incubation. […] The growth of isolate PI12 was inhibited at 25-37° C.
Extracellular enzyme activities, by isolate PI12 namely protease and lipase, were also observed.

LipPI12 protease [3] = assay: Effect of metal ions on LipPI12 protease activity; format: biochemical, Leucosporodium antarcticum PI12; settings: 1 mM metal ion, 30 min at 20° C.
Description: (§3) Both the lipase and protease were treated with 1 mM of various metal ions for 30 mins prior to enzyme assays. Lipase activity ?; protease activity ? .
(§4) Various metal ions were tested by treating the purified enzyme with 1 mM of metal ions such as Na^+, Mg^2+, Ca^2+, Fe^2+, Mn^2+, K^+, Zn^2+ and Cu^2+ for 30 min at 20° C. It was subjected to lipase and protease assays after treatment. The effects of various metal ions were tested on the purified LipPI12 activity and the remaining activity was assayed using olive oil emulsion. […] This is an indication which explains the role of Ca ion which may work as a stabilizer to the molecule, as predicted in the LipPI12 3D model. Whereas, the beta roll motif, served as a metal binding site, presumably predicted for the Ca ions. […] Na^+ Mg^2+ and Fe^2+ have toxic effect to the enzyme. Other metal ions tested were CuCl2, ZnCl2 and MnCl2, which had obviously made the lipase to be slightly stable and with no elimination of activity relatively not less than 50% (FIG. 27).
Protease LipPI12 looks more susceptible to all metal ions tested. […] The incubation with Na^+ and […] ions had done little effect as compared to the destabilizing manner shown by divalent ions of Cu^2+ and Mn^2+. […] A novel binding site for Zn ion may be involved in protease LipPI12. Structural elucidation is the best way to decipher the findings. The activation effect of Ca ion in both lipase and protease of LipPI12 is caused by the nature of the psychrophilic enzyme. Huge conformational movement will probably allow active residue rearrangement and can provide better accessibility of substrate, thus giving rise to a unique enzyme like LipPI12. This is achieved via local flexibility and mobility as the enzyme from psychrophiles evolves to withstand the extreme conditions, not only the coldness but also the low water content and substrate availability. Metal ions have been recognized to have effects on the activity of various enzymes. They bind the substrate and orient them properly for the reaction to occur. Besides mediating oxidation-reduction reactions, they can also electrostatically stabilize or shield negative charges. On the other hand, based on the correlation between the enzymes and metal ions, these enzymes could be classified into two types: Metalloenzymes and Metal-activated enzyme. In Metalloenzyme, metal ions such as Fe, Cu, Mn, Co are tightly bound ion pairs. While in the metal-activated enzymes, the metal ions such as Na, K, Mg, and Ca are loosely bound metal ions from the solution. Based on these facts, the protease LipPI12 is considered as a metal-activated enzyme.

LipPI12 lipase [4] = assay: Effect of metal ions on LipPI12 lipase activity; format: biochemical, Leucosporodium antarcticum PI12; settings: 1 mM metal ion, 30 min at 20° C.
Description: as §3, §4

LipPI12 protease [5] = assay: Effect of inhibitors on LipPI12 protease activity; format: biochemical, Leucosporodium antarcticum PI12; settings: 1 mM inhibitor, 20° C., 30 min
Description: (§5) The final concentration of inhibitors was 1 mM. The LipPI12 lipase and protease were assayed with olive oil as substrate after incubation with inhibitors for 30 min.
(§6) Partial understanding of the enzyme catalysis involves the reaction with various inhibitors. […] Various inhibitors were tested at a final concentration of 1 mM (PMSF, EDTA and pepstatin). The purified enzyme was treated with various inhibitors at 20° C. for 30 min prior to measuring the residual activity colorimetrically.

LipPI12 lipase [6] = assay: Effect of inhibitors on LipPI12 lipase activity; format: biochemical, Leucosporodium antarcticum PI12; settings: 1 mM inhibitor, 20° C., 30 min
Description: as §5, §6

LipPI12 lipase [7] = assay: Organic solvent tolerance of LipPI12 lipase; format: biochemical, Leucosporodium antarcticum PI12; settings: 3 ml enzyme solution + 1 ml solvent, 20° C., 30 min
Description: (§7) Protease activity ?; Lipase activity ? .
(§8) Study On LipPI12 organic solvent stability was carried out in reaction mixture containing purified LipPI12 and various solvents. The mixture was incubated at 20° C. with shaking rates at 150 rpm for 30 min. Control reaction was done by mixing the enzyme with water. Relative activity of lipase was determined according Kwon and Rhee (1986) method. Whereby protease assay was done according to Brock et, al., (1982). The effects of various organic solvents on the stability of the cold active LipPI12 were studied. A mixture of 3 ml enzyme solution and 1 ml of an organic solvent was incubated at 20° C. with shaking, and the remaining activity was measured after 30 min of incubation.

LipPI12 lipase [8] = assay: Substrate specificity of LipPI12 lipase, pure triglycerides; format: biochemical, Leucosporodium antarcticum PI12; settings: 20° C., 30 min, substrate 1:1 v/v
Description: Values in bracket represent the carbon chain length of each substrate. LipPI12 lipase was assayed with the pure triglycerides (1:1, v/v) as substrate.
(§9) Various triglycerides (triacetin, tributyrin, tricaprylin, triolein) p-nitrophenol esters (p-nitrophenylbutyrate, p-nitrophenylcaprylate, p-nitrophenyllaurate, p-nitrophenylpalmitate) and natural oils (olive oil, soy bean oil, corn oil, sun flower oil, rice brain oil, coconut and palm oil) were tested for the cold active LipPI12 lipase activity. It was assayed at 20° C. for 30 min colorimetrically. The capability of the LipPI12 to hydrolyze different carbon chain lengths of triglycerides was investigated. […] LipPI12 lipase substrate specificity towards medium chain length was also observed in natural oils. […] LipPI12 low efficiency or inability to catalyze such substrate was probably due to improper substrate and active coordination and limited substrate accessibility as a result of cis conformation of aliphatic chain when compared to the trans conformation which is much linear. Artificial substrate was also used in the form of esters, namely para-nitrophenyl (pNP) esters containing carbon chain ranging from C4 (butyrate) to C16 (palmitate). […] Certainly, LipPI12 broad substrate specificity, which posed a huge prospect in application and the understanding of mechanism, is important. […]

LipPI12 protease [9] = assay: Organic solvent tolerance of LipPI12 protease; format: biochemical, Leucosporodium antarcticum PI12; settings: 3 ml enzyme solution + 1 ml solvent, 20° C., 30 min
Description: as §7, §8

LipPI12 lipase [10] = assay: Substrate specificity of LipPI12 lipase, para-nitrophenyl esters; format: biochemical, Leucosporodium antarcticum PI12; settings: versus butyrate (C4), caprylate (C8), laurate (12)
Description: Values in bracket represent the fatty acid carbon chain length.
as §9, with “important. Nonetheless, the profile of substrate is a crucial point, where accessibility determines substrate specificity.” for “important.”

## TRITON™ X-100
LipPI12 lipase [1]
  effect of surfactant on lipase activity: retains its activity
LipPI12 protease [2]
  effect of surfactant on protease activity: retain its activity

## CC1(C)S[C@@H]2[C@H](NC(=O)[C@H](N)c3ccccc3)C(=O)N2[C@H]1C(=O)O [Ampicilin]
Isolate PI12
  resistance of isolate PI12: resistance

## TWEEN™ 60
LipPI12 lipase [1]
  effect of surfactant on lipase activity: retains its activity
LipPI12 protease [2]
  effect of surfactant on protease activity: retain its activity

## [Fe+2] [Fe^2+]
LipPI12 protease [3]
  protease relative activity as compared to the control: ~100%
LipPI12 lipase [4]
  effect of metal ion on lipase activity: toxic effect

## O=S(=O)(F)Cc1ccccc1 [PMSF, phenylmethylsulphonyl fluoride]
LipPI12 protease [5]
  inhibition of protease (words): partially inhibited
LipPI12 lipase [6]
  inhibition of lipase: partially inhibited

## [K+] [IC]
LipPI12 protease [3]
  effect of metal ion on protease activity: little effect

## O=S(=O)([O-])[O-].[Zn+2] [ZnSO4]
LipPI12 protease [3]
  effect of metal ion on protease activity: do not affect

## CCCO [propanol]
LipPI12 lipase [7]; control in water
  lipase activity in solvent: > 160%

## [Na+] [Na^+]
LipPI12 protease [3]
  effect of metal ion on protease activity: little effect
LipPI12 lipase [4]
  effect of metal ion on lipase activity: toxic effect

## CCCCCCCCCCCC(=O)OCC(COC(=O)CCCCCCCCCCC)OC(=O)CCCCCCCCCCC [trilaurin]
LipPI12 lipase [8]
  relative activity, triglyceride as substrate: 100%

## O=C(O)CN(CCN(CC(=O)O)CC(=O)O)CC(=O)O [EDTA, ethylene diamine tetraacetic acid]
LipPI12 protease [5]
  inhibition of protease (words): partially inhibited
LipPI12 lipase [6]
  inhibition of lipase: partially inhibited

## [Cl-].[Cl-].[Mg+2] [Mg^2+, MgCl2]
LipPI12 protease [3]
  effect of metal ion on protease activity: activator
  protease relative activity as compared to the control: ~100%
LipPI12 lipase [4]
  effect of metal ion on lipase activity: toxic effect

## CCCCCCCCCCCCOS(=O)(=O)[O-].[Na+] [SLS, Sodium lauryl sulphate]
LipPI12 protease [2]
  enhancement of protease activity: 70%

## CCCCCC [hexane]
LipPI12 lipase [7]
  effect of organic solvent on lipase: total elimination of activity

## CCOCC [Diethyleter]
LipPI12 lipase [7]
  effect of organic solvent on lipase: total elimination of activity

## CCCCCCCCCCCCOS(=O)(=O)[O-].[Na+] [SDS]
LipPI12 protease [2]
  protease activity remaining, of control activity: 27%

## [Cl][Mn][Cl] [MnCl2]
LipPI12 protease [3]
  protease relative activity as compared to the control: 40%

## CCCCCCCCCCCCCCCC [hexadecane]
LipPI12 lipase [7]
  effect of organic solvent on lipase: good stability
LipPI12 protease [9]
  effect of organic solvent on protease: tolerance

## CCCCCCCCCC [decane]
LipPI12 lipase [7]
  effect of organic solvent on lipase: total elimination of activity

## TWEEN™ 40
LipPI12 lipase [1]
  effect of surfactant on lipase activity: retains its activity
LipPI12 protease [2]
  effect of surfactant on protease activity: retain its activity

## O=C(N[C@H](CO)[C@H](O)c1ccc([N+](=O)[O-])cc1)C(Cl)Cl [Chloramphenicol]
Isolate PI12
  resistance of isolate PI12: resistance

## dimethylsulfonyl
LipPI12 lipase [7]
  increase of lipase activity: ~80%
LipPI12 protease [9]
  effect of organic solvent on protease: tolerance

## [Cl-].[Cl-].[Zn+2] [ZnCl2]
LipPI12 protease [3]
  effect of metal ion on protease activity: activator
  protease relative activity as compared to the control: 170%

## CCCCCCCCCCCCCCCC(=O)Oc1ccc([N+](=O)[O-])cc1 [pNP palmitate, p-nitrophenylpalmitate]
LipPI12 lipase [10]
  increment of activity relative to other pNP esters: 60%

## [Cl][Fe]([Cl])[Cl] [FeCl3]
LipPI12 protease [3]
  effect of metal ion on protease activity: do not affect

## c1ccccc1 [benzene]
LipPI12 lipase [7]
  effect of organic solvent on lipase: good stability

## CCCCCCCCCCCC [dodecane]
LipPI12 lipase [7]
  effect of organic solvent on lipase: good stability

## [Cl][Cu][Cl] [CuCl2]
LipPI12 protease [3]
  effect of metal ion on protease activity: do not affect
  protease relative activity as compared to the control: 4%

## [Ca+2].[Cl-].[Cl-] [CaCl2]
LipPI12 protease [3]
  protease relative activity as compared to the control: ~100%
LipPI12 lipase [4]
  effect of metal ion on lipase activity: activator
LipPI12 lipase [4]; olive oil emulsion
  lipase activity as compared to the control: 115%

## CC(C)CC(=O)N[C@H](C(=O)N[C@H](C(=O)N[C@@H](CC(C)C)[C@@H](O)CC(=O)N[C@@H](C)C(=O)N[C@@H](CC(C)C)[C@@H](O)CC(=O)O)C(C)C)C(C)C [Pepstatin] (Isovaleryl-VV[Sta]A[Sta]-OH)
LipPI12 protease [5]
  inhibition of protease (words): drastically eliminated
LipPI12 protease [5]; listed as pepstatin
  inhibition of protease (words): inhibited

## TWEEN™ 80
LipPI12 protease [2]
  enhancement of protease activity: 30%

## Cc1ccccc1 [toluene]
LipPI12 lipase [7]
  decrease of lipase activity: more than 50%
